Experimental data from patent US9101616B2, “Aryl substituted carboxamide derivatives as calcium or sodium channel blockers” (RaQualia Pharma Inc., priority 2009, dated 2015).

biological target: T1, human T-type channel alpha-1H (CaV 3.2) (Homo sapiens, UniProt O95180); test: Ca2+ Influx Assay (cell-based fluorescent, FDSS); conditions: HEK 293 cells expressing human CaV 3.2
T1 construct: expressed in transfected cells; host or cells: HEK 293
Procedure: Inhibition of T-type calcium channel activity was determined by cell-based flu-orescent Ca^2+ influx assay, in which potassium ionophore was added to decrease resting membrane potential and extra-cellular high-K^+ stimulation was used to modulate the membrane potential of the cell. The changes in fluorescent signal were monitored by the cell imaging technology by Hamamatsu Photonics's Functional Drug Screening System (FDSS).
HEK 293 cells expressing the human T-type channel alpha-1H (CaV 3.2) were maintained in DMEM supplemented with 10% heat-inactivated FBS, 100 units/ml Penicillin, 100 microg/ml Streptomycin, 150 microg/ml Zeocin, 300 microg/ml Geneticin. The cells were grown in a 5% CO2 humidified incubator at 37° C.
• 1. Cells were harvested and seeded in a poly-D-lysine coated black-sided clear bottom 384-well plate at density of 10,000 cells/well at 24 hours prior to assay. • 2. Incubate at 37° C. in 5% CO2. Day Two: • 1. Wash each well with assay buffer (see below) and leave 20 RI using plate washer, ELx-405 Select CW (BIO-TEK). • 2. Add 20 μL of assay buffer containing 6 μM Fluo-4-AM (Molecular Probes) and 0.005% Pluronic F-127 to each well. • 3. Incubate the plate at 37° C. for 1 hour. • 4. Wash each well assay buffer (see below) and leave 20 μl using plate washer, ELx-405 Select CW (BIO-TEK). • 5. Add 10 μl of compound solution into each well by FDSS6000 and leave the plate for 4.5 min, and then add 10 μl of potassium ionophore solution. • 6. Add 20 μl of high-K^+ depolarizing solution (see below) and monitor the change of fluorescent signal.
The IC50 values for compounds of the present invention were determined from 7-point dose-response studies. Curves were generated using the average of duplicate wells for each data point. Finally, the IC50 values are calculated with the best-fit dose curve determined by XLfit.

T1 sequence (O95180 whole entry): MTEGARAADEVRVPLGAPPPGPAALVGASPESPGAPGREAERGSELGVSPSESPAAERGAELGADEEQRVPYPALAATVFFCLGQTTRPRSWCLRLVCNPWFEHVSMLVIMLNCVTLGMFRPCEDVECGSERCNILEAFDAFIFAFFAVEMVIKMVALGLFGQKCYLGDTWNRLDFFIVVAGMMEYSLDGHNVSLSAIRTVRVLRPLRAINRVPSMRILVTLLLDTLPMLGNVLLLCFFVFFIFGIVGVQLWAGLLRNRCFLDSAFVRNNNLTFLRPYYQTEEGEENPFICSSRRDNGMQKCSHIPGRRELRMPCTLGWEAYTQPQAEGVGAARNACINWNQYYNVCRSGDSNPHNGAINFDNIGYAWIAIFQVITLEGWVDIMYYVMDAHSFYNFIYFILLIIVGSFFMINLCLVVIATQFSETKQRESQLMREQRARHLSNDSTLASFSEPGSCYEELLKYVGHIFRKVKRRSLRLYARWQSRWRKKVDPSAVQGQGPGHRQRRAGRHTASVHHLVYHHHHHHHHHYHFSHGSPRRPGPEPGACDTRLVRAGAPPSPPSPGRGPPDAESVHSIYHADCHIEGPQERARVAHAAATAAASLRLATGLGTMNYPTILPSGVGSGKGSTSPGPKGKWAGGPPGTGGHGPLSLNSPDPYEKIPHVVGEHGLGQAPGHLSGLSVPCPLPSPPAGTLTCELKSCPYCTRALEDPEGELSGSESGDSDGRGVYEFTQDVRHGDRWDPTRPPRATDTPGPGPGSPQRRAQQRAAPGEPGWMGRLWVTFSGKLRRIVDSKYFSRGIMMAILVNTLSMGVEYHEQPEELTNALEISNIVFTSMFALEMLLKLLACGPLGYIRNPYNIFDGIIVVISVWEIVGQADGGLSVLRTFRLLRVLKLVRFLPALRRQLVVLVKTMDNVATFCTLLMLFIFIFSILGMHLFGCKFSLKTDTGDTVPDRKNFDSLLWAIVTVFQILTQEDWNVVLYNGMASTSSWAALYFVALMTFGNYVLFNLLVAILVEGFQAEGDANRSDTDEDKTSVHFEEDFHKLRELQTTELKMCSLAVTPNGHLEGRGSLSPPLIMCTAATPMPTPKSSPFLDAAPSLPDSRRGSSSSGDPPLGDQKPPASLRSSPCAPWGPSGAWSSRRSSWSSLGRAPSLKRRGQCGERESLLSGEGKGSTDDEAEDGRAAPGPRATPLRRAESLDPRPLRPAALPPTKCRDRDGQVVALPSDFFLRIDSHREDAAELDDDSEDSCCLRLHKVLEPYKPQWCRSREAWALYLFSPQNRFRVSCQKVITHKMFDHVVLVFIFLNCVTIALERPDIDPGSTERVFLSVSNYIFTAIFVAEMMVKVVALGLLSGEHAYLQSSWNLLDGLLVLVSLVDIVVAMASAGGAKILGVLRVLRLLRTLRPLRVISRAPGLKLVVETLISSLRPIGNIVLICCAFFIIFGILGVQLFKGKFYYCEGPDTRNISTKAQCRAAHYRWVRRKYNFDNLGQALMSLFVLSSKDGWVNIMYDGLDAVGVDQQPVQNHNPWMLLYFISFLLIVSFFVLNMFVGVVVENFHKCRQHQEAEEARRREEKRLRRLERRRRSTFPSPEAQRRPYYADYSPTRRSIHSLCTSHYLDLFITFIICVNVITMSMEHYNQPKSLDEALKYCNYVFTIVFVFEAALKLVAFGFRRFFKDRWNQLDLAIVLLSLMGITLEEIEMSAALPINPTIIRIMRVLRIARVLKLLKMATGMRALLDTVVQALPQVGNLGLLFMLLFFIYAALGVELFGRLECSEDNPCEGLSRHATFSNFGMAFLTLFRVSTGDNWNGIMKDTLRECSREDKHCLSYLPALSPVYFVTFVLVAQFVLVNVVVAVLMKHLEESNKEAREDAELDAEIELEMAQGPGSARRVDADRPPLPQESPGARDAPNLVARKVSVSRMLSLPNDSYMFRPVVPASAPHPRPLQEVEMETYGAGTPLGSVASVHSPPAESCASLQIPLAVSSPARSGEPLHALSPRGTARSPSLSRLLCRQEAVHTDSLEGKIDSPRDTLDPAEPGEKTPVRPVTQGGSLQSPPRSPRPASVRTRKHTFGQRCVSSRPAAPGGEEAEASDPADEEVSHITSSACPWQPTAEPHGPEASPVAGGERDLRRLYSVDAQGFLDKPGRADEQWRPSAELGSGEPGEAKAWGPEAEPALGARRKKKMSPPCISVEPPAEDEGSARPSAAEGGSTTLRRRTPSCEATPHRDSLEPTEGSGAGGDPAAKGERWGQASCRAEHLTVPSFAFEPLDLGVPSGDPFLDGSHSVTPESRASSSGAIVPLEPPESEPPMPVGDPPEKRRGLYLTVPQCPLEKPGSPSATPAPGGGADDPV

SMILES	IC50
COc1ccc([C@H]2C[C@@H]2C(=O)N[C@H](C)c2ccc(OCC(F)(F)F)cn2)c(F)c1 (relative stereo) [Example 248, (1S*,2S*)-2-(2-fluoro-4-methoxyphenyl)-N-((R)-1-(5-(2,2,2-trifluoroethoxy)pyridin-2-yl)ethyl)cyclopropanecarboxamide]	≤ 300 nM
C[C@@H](NC(=O)[C@H]1C[C@@H]1c1c(F)cc(F)cc1F)c1ccc(OCC(F)(F)F)cn1 (relative stereo) [Example 250, (1S*,2S*)-N-((R)-1-(5-(2,2,2-trifluoroethoxy)pyridin-2-yl)ethyl)-2-(2,4,6-trifluorophenyl) cyclopropanecarboxamide]	≤ 300 nM
Cc1cccc([C@H]2C[C@@H]2C(=O)N[C@H](C)c2ccc(OCC(F)(F)F)cn2)c1 (relative stereo) [Example 251, (1S*,2S*)-2-m-tolyl-N-((R)-1-(5-(2,2,2-trifluoroethoxy)pyridin-2-yl)ethyl)cyclopropanecarboxamide]	≤ 300 nM
C[C@@H](NC(=O)[C@H]1C[C@@H]1c1cc(F)cc(F)c1)c1ccc(OCC(F)(F)F)cn1 (relative stereo) [Example 253, (1S*,2S*)-2-(3,5-difluorophenyl)-N-((R)-1-(5-(2,2,2-trifluoroethoxy)pyridin-2-yl)ethyl)cyclopropanecarboxamide]	≤ 300 nM
COc1cccc([C@H]2C[C@@H]2C(=O)N[C@H](C)c2ccc(OCC(F)(F)F)cn2)c1 (relative stereo) [Example 258, (1S*,2S*)-2-(3-methoxyphenyl)-N-((R)-1-(5-(2,2,2-trifluoroethoxy)pyridin-2-yl)ethyl)cyclopropanecarboxamide]	≤ 300 nM
COc1ccc([C@H]2C[C@@H]2C(=O)N[C@H](C)c2ccc(OCC(F)(F)F)cn2)cc1 (relative stereo) [Example 259, (1S*,2S*)-2-(4-methoxyphenyl)-N-((R)-1-(5-(2,2,2-trifluoroethoxy)pyridin-2-yl)ethyl)cyclopropanecarboxamide]	≤ 300 nM
C[C@@H](NC(=O)[C@@H]1C[C@H]1c1nc2ccccc2[nH]1)c1ccc(OCC(F)(F)F)cn1 (relative stereo) [Example 260, (1R*,2R*)-2-(1H-benzo[d]imidazol-2-yl)-N-((R)-1-(5-(2,2,2-trifluoroethoxy)pyridin-2-yl)ethyl)cyclopropanecarboxamide]	≤ 300 nM
C[C@@H](NC(=O)[C@H]1C[C@@H]1c1ccc(F)cc1Cl)c1ccc(OCC2CC2)cn1 (relative stereo) [Example 261, (1S*,2S*)-2-(2-chloro-4-fluorophenyl)-N-((R)-1-(5-(cyclopropylmethoxy)pyridin-2-yl)ethyl)cyclopropanecarboxamide]	≤ 300 nM
COc1ccc([C@H]2C[C@@H]2C(=O)N[C@H](C)c2ccc(OCC3CC3)cn2)c(F)c1 (relative stereo) [Example 263, (1S*,2S*)-N-((R)-1-(5-(cyclopropylmethoxy)pyridin-2-yl)ethyl)-2-(2-fluoro-4-methoxy-phenyl)cyclopropanecarboxamide]	≤ 300 nM
C[C@@H](NC(=O)[C@@H]1C[C@H]1c1c(F)cc(F)cc1F)c1ccc(OCC2CC2)cn1 (relative stereo) [Example 266]	≤ 300 nM
Cc1cccc([C@H]2C[C@@H]2C(=O)N[C@H](C)c2ccc(OCC3CC3)cn2)c1 (relative stereo) [Example 267, (1S*,2S*)-N-((R)-1-(5-(cyclopropylmethoxy)pyridin-2-yl)ethyl)-2-m-tolylcyclopropanecarboxamide]	≤ 300 nM
C[C@@H](NC(=O)[C@H]1C[C@@H]1c1ccc(F)cc1Cl)c1cnc(OCC(F)(F)F)cn1 (relative stereo) [Example 268, (1S*,2S*)-2-(2-chloro-4-fluorophenyl)-N-((R)-1-(5-(2,2,2-trifluoroethoxy)pyrazin-2-yl)ethyl)cyclopropanecarboxamide]	≤ 300 nM
